Laboratory results from PMC10226046, “Prodrug Strategies for the Development of β-L-5-((E)-2-Bromovinyl)-1-((2S,4S)-2-(hydroxymethyl)-1,3-(dioxolane-4-yl))uracil (L-BHDU) against Varicella Zoster Virus (VZV)” (Journal of Medicinal Chemistry, 2023).

Columns and labels:
VZV-ORF57-ΔTK = test: microbe, parasite or virus in culture; assay type: cell-based, Varicella zoster virus; details: Human alphaherpesvirus 3, ARPE-19
[1] = In vitro stability in mouse liver homogenates (LC-MS/MS); assay type: in vitro ADME, BALB/c mice; details: 37 °C; converted to L-BHDU and L-BHDU-MP
Description: The antiviral efficacy of POM-L-BHDU-MP prompted us to perform pharmacokinetic studies on POM-L-BHDU-MP in vitro and in vivo. […] In liver homogenates, POM-L-BHDU-MP converted to L-BHDU and L-BHDU-MP (Figure 4). POM-L-BHDU-MP incubated with homogenized mouse liver was unstable and converted to L-BHDU and L-BHDU-MP. The concentration of L-BHDU increased steadily, reaching 1.9 μg/mL after 60 min. L-BHDU-MP appeared rapidly and reached maximal concentration (4.6 μg/mL) after 4 min, which is 32-fold higher than the corresponding L-BHDU concentration. Thus, POM-L-BHDU-MP likely converts rapidly into L-BHDU-MP and more slowly into L-BHDU in the liver.
Untreated BALB/c mice were euthanized, and their livers were immediately removed. […] The concentration of POM-L-BHDU-MP, L-BHDU, and L-BHDU-MP were determined using LC-MS/MS.
The primary stock solutions for the calibration were prepared at 0.5 mg/mL for L-BHDU, 1 mg/mL for POM-L-BHDU-MP, and 1 mg/mL for L-BHDU-MP. […] The samples were analyzed in a negative ESI mode. […] The collision gas was argon with a collision cell pressure of 3.18 × 10^–3 mbar, and the collision energy was 30 V. A multiple reaction monitoring (MRM) function was used to quantify the analytes using the following ion transitions: 266.1 → 223.2 for AZT (ISTD), 318.7 → 80.7 for L-BHDU, 398.7 → 180.9 for L-BHDU-MP, and 626.6 → 325 for POM-L-BHDU-MP.

[2] = Stability in gastric and intestinal juice; assay type: in vitro ADME; details: data not shown
VZV-ORF57-Luc = test: microbe, parasite or virus in culture; details: Human alphaherpesvirus 3, ARPE-19, cell-free VZV-ORF57-Luc, ARPE-19 cells, 72 hpi, bioluminescence imaging

## CC(C)(C)C(=O)OCOP(=O)(OCOC(=O)C(C)(C)C)OC[C@H]1OC[C@@H](n2cc(/C=C/Br)c(=O)[nH]c2=O)O1 [POM-L-BHDU-MP (41), Bis(POM) Prodrug of L-BHDU-MP]
VZV-ORF57-ΔTK
  EC50: > 2000 nM
[1]
  stability in homogenized mouse liver: unstable
[2]
  stability in gastric and intestinal juice: good stability
VZV-ORF57-Luc
  EC50: 35 nM
